From patent US11116774B2, “Modulators of toll-like receptors for the treatment of HIV” (Gilead Sciences, Inc., priority 2014, dated 2021)

Columns and labels:
[1] = test system: peripheral CD4 lymphocytes (CD3+CD4+CD8−); assay: Peripheral lymphocyte activation, CD69 by flow cytometry: CD4 lymphocytes (Example 206); type: in vivo, rhesus macaque
From the text: During the course of treatment with the compound of Example 4 as described in Example 204, peripheral lymphocyte activation was monitored in the groups dosed with the compound of Example 4 or the dosing vehicle of Example 201 (placebo), by measuring the expression of the early activation marker CD69 on various lymphocyte subsets by flow cytometry methodology. This methodology was used to quantify the percentage of immune cell subsets expressing the early activation marker. Standard data acquisition techniques were employed on a flow cytometer and by the use of antibodies conjugated to fluorescent molecules where the antibodies recognize rhesus macaque cell surface proteins on various immune cell subsets. In animals dosed with the compound of Example 4, whole blood samples were collected for each dose at various time points both at pre- and post-administration of compound. Total PBMCs were stained in the whole blood samples using antibodies that were chosen to be reactive to rhesus CD3, CD4, CD8, NKG2A, CD16 and CD56, each conjugated to different fluorescent probes to delineate CD3+CD4+CD8− lymphocytes, CD3+CD4−CD8+ lymphocytes and CD3-CD8+ NKG2A+CD16+ CD56+ NK cells. The flow cytometry data presented herein are from animals treated with the compound of Example 4.

[2] = test system: polyfunctional proliferating CD8 T cells (CFSE low, IFNg+, TNFa+); assay: Induction of HIV-specific polyfunctional CD8 T cells ex vivo (Example 216); type: cell-based, human; settings: PBMCs from 5 HIV-infected donors, HIV peptide pools
Description: PBMCs from 5 HIV-infected donors (Donor IDs 178-180 and 182-183) on suppressive cART were isolated, as described previously, and stained with carboxyfluorescein succinimiyl ester (CFSE). PBMC cultures were treated with DMSO or the compound of Example 49 (GS-9620) at 0.1 or 1 uM. Cultures were incubated at 37° C. for 2 days and treated with 500 ng/ml 15-mer peptide pools derived from overlapping HIV gag, pol, nef, and env consensus peptides (JPT Peptide Technologies GmbH). Cells were incubated at 37° C. for 8 days. Cultures were split into duplicate sets and stained in dulbecco's phosphate buffered saline (DPBS) with LIVE/DEAD Fixable Aqua Dead Cell Stain (Life Technologies). The immune recall response was performed as follows. One culture set was treated with the same HIV peptide pools and the other set was treated with 500 ng/ml CMV/EBV/Flu/Tetanus (CEFT) peptides (JPT Peptide Technologies GmbH). After one hour at 37° C., cultures were treated with 0.7 μl GolgiStop (BD Biosciences) containing monensin and 1 μl GolgiPlug (BD Biosciences) containing brefeldin A. Cultures were incubated for 3 additional hours at 37° C. and stained for 15 minutes with anti-CD4-v450, anti-CD3-AlexaFlour 700, and anti CD8-APC-H7 (BD Biosciences). Cultures were fixed with IC Fixation Buffer (eBioscience) and permeabilized with Permeabilization Buffer (eBioscience). […]

| Structure (SMILES) | mean maximum percent change in CD69 expression on CD4 lymphocytes ([1]; all subsequent doses) [%] | mean maximum percent change in CD69 expression on CD4 lymphocytes ([1]; dose 0.1 mg/kg, any time point (rise 24 to 72 hours post-dose), pre-dose range 0.5-1.7%) [%] | mean maximum percent change in CD69 expression on CD4 lymphocytes ([1]; dose 0.2 mg/kg, pre-dose range 0.5-2%) [%] | mean maximum percent change in CD69 expression on CD4 lymphocytes ([1]; first dose of 0.3 mg/kg, pre-dose range 0.6-2.5%) [%] | increase of mean level of polyfunctional proliferating CD8 T cells compared to DMSO ([2]; 0.1 uM, p<0.05) [fold] | increase of mean level of polyfunctional proliferating CD8 T cells compared to DMSO ([2]; 1 uM, p<0.005) [fold] |
| --- | --- | --- | --- | --- | --- | --- |
| CCCCOc1nc(N)c2c(n1)N(Cc1ccc(CN3CCCC3)cc1)CC(=O)N2 [Example 4] | 1.7 | 1.1 | 1.5 | 2.3 |  |  |
| CCCCOc1nc(N)c2c(n1)N(Cc1cccc(CN3CCCC3)c1)CC(=O)N2 [Example 49] |  |  |  |  | 9.0 | 7.5 |
